Earlier results in patent US11690524B2, “Assessment of iron deposition post myocardial infarction as a marker of myocardial hemorrhage” (Cedars-Sinai Medical Center, priority 2011, dated 2023).

Key:
[1] = qualitative statement
post MI patients = conditions: 6 months of therapy, TACT trial

half-life in plasma / plasma life [1] | Compound | effect on MACE (major adverse cardiovascular events) (post MI patients)
short | CC(=O)N(O)CCCCCNC(=O)CCC(=O)N(O)CCCCCNC(=O)CCC(=O)N(O)CCCCCN [deferoxamine] | –
– | O=C(O)CN(CCN(CC(=O)O)CC(=O)O)CC(=O)O [EDTA] | did not decrease MACE
longer | Cc1c(O)c(=O)ccn1C [Deferiprone] | –
